pKi: −log10 of the molar value.
Biological target: T1, NIK (Homo sapiens, UniProt Q99558)
T1 construct: Both assays utilize a truncated form of NIK containing only the catalytic domain; made in house; host or cells: baculovirus expression system (insect cells implied)
Experiment: homogenous time resolved fluorescence (HTRF) assay for NIK Ki measurement
Format: biochemical
Conditions: truncated NIK (catalytic domain only), autophosphorylation; 10 nM enzyme; 20, 100, 200 or 500 μM ATP; room temperature, 2 hours; read-out: Ki activity in the homogenous time resolved fluorescence (HTRF) assay for NIK

T1 sequence (Q99558 400-655 limits assumed): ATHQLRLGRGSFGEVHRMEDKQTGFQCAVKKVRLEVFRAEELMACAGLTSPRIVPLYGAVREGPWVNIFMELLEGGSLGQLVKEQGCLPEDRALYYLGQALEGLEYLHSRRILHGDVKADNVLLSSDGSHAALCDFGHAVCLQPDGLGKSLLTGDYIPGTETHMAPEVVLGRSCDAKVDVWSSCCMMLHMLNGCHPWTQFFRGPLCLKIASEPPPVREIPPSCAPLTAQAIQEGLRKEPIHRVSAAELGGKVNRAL

| SMILES | pKi |
| --- | --- |
| Nc1ncc(F)c(-c2c[nH]c3ccc(C#CC4(O)CCCC4)cc23)n1 [Example 95, 1-(2-(3-(2-amino-5-fluoropyrimidin-4-yl)-1H-indol-5-yl)ethynyl)cyclopentanol] | > 6.00 |
| COCCNC(=O)c1[nH]c2ccc(C#CC3(O)CCCC3)cc2c1-c1ccnc(N)n1 [Example 96, 3-(2-aminopyrimidin-4-yl)-5-(2-(1-hydroxycyclopentyl)ethynyl)-N-(2-methoxyethyl)-1H-indole-2-carboxamide] | > 6.00 |
| OC1(C#Cc2ccc3[nH]nc(-c4ccns4)c3c2)CCCC1 [Example 97, 1-(2-(3-(isothiazol-5-yl)-1H-indazol-5-yl)ethynyl)cyclopentanol] | > 6.00 |
| COc1cc(C#CC2(O)CCCC2)cc2c1ccn2-c1ccnc(N)n1 [Example 98, 1-(2-(1-(2-aminopyrimidin-4-yl)-4-methoxy-1H-indol-6-yl)ethynyl)cyclopentanol] | > 6.00 |
| Nc1nccc(-n2ccc3c(O)cc(C#CC4(O)CCCC4)cc32)n1 [Example 99, 1-(2-aminopyrimidin-4-yl)-6-(2-(1-hydroxycyclopentyl)ethynyl)-1H-indol-4-ol] | > 6.00 |
| COCCOc1cc(C#CC2(O)CCCC2)cc2c1ccn2-c1ccnc(N)n1 [Example 100, 1-(2-(1-(2-aminopyrimidin-4-yl)-4-(2-methoxyethoxy)-1H-indol-6-yl)ethynyl)cyclopentanol] | > 6.00 |
| CC(=O)Nc1cc(C#CC2(O)CCCC2)cc2c1ccn2-c1ccnc(N)n1 [Example 101, N-(1-(2-aminopyrimidin-4-yl)-6-(2-(1-hydroxycyclopentyl)ethynyl)-1H-indol-4-yl)acetamide] | > 6.00 |
| COc1cc(C#CC2(O)CCCC2)cc2c1ccn2-c1nc(N)ncc1F [Example 102, 1-((1-(2-amino-5-fluoropyrimidin-4-yl)-4-methoxy-1H-indol-6-yl)ethynyl)cyclopentanol] | > 6.00 |
| COc1cc(C#CC2(O)CCCC2)cc2c1c(CO)cn2-c1nc(N)ncc1F [Example 103, 1-(2-(1-(2-amino-5-fluoropyrimidin-4-yl)-3-(hydroxymethyl)-4-methoxy-1H-indol-6-yl)ethynyl)cyclopentanol] | > 6.00 |
| Cc1cc(C(C)(O)C#Cc2ccc3[nH]c(C)c(-c4ccncc4)c3c2)no1 (stereo not shown) [Example 104, 4-(2-methyl-3-(pyridin-4-yl)-1H-indol-5-yl)-2-(5-methylisoxazol-3-yl)but-3-yn-2-ol] | > 6.00 |
| COCCN(C)C1CCn2c1c(-c1ccncn1)c1cc(C#CC(C)(O)c3nccs3)ccc12 (stereo not shown) [Example 105, 4-(1-((2-methoxyethyl)(methyl)amino)-9-(pyrimidin-4-yl)-2,3-dihydro-1H-pyrrolo[1,2-a]indol-7-yl)-2-(thiazol-2-yl)but-3-yn-2-ol] | > 6.00 |
| CC(O)(C#Cc1ccc2[nH]cc(-c3cnco3)c2c1)c1nccs1 (stereo not shown) [Example 106, 4-(3-(oxazol-5-yl)-1H-indol-5-yl)-2-(thiazol-2-yl)but-3-yn-2-ol] | > 6.00 |
| Nc1ncc(Cl)c(-c2c[nH]c3ccc(C#CC4(O)CCCC4)cc23)n1 [Example 107, 1-(2-(3-(2-amino-5-chloropyrimidin-4-yl)-1H-indol-5-yl)ethynyl)cyclopentanol] | > 6.00 |
| N#Cc1cnc(N)nc1-c1c[nH]c2ccc(C#CC3(O)CCCC3)cc12 [Example 108, 2-amino-4-(5-(2-(1-hydroxycyclopentyl)ethynyl)-1H-indol-3-yl)pyrimidine-5-carbonitrile] | > 6.00 |
| Nc1ncc(Cl)c(-c2c[nH]c3ccc(C#CC4(O)CCCCC4)cc23)n1 [Example 109, 1-(2-(3-(2-amino-5-chloropyrimidin-4-yl)-1H-indol-5-yl)ethynyl)cyclohexanol] | > 6.00 |
| CNc1nccc(-c2c[nH]c3ccc(C#CC4(O)CCCC4)cc23)n1 [Example 111, 1-(2-(3-(2-(methylamino)pyrimidin-4-yl)-1H-indol-5-yl)ethynyl)cyclopentanol] | > 6.00 |

Reference: patent US20110086834A1, “ALKYNYL ALCOHOLS AS KINASE INHIBITORS” (AMGEN INC., priority 2008, published 2011)
